Consider one molecule from patent publication US7524512B2, “Composition and method for the prevention and relief of the symptoms of an incompetent or patulous Eustachian tube” (priority 2007, dated 2009).

Data set [1] relates to otitis media / middle ear infection. Description: Case studies: treatment of otitis media, otitis media with effusion and middle ear infection. Type of data set: in vivo, human. As to the method: Modification of the composition and methods of treatment for otitis media (OM) and otitis media with effusion (OME) due to inflammatory disease of the middle ear epithelium, structures and specialized membranous tissues is described below. The inflammatory diseases of the middle ear and biofilm are treated herein treated by the following methods. The composition is preferably delivered through the natural opening at the nasopharyngeal orifice of the eustachian tube leading to the middle ear chamber. If this is not possible, a needle or myringotomy incision in made in the tympanic membrane (ear drum) via the external ear canal for the delivery of the embodiment, with or without a device, into the middle ear to chamber. The chamber is irrigated and the biofilm flushed by the exemplary embodiment of the composition delivered as described above.
In otitis media, the solution is topically applied to the Eustachian Tube mucosa in appropriate dosage forms for administration or delivered to the middle ear chamber by delivery through the stoma of the Eustachian Tube in the form of nasal drops, spray, aerosol, rinse, douche or gel. The delivery system may include the modified Politzer technique or catheter insufflation of the middle ear.
If the middle ear chamber is not easily accessible through its natural eustachian tubal stoma, the chamber can be reached directly by surgically penetrating or making an incision in the tympanic membrane of the lateral wall of the middle ear, as in a myringotomy.
In this way, the contaminated middle ear fluid, micro-organisms and biofilm adhesins seen in OME may be degraded and removed by a paracentesis (needle)or myringotomy (scalpel) incision of the tympanic membrane with aspiration of the fluid, under direct visualization. The middle ear fluids and debris are degraded and flushed out by rinsing with the composition of the exemplary embodiment delivered through the acquired opening into the middle ear chamber, in the form of nasal drops, spray, aerosol, rinse, douche, irrigation or gel. The composition, L-Ascorbic acid, in about 4% to 10% wt/vol in an aqueous solution, is employed through a surgically made incision or acquired defect in the tympanic membrane of the middle ear for the optimal characteristics or effects to reestablish Eustachian luminal patency, restore the rheologic properties of the membranous lining, to breakdown and eliminate the contained microorganisms, biofilm or abiotic toxins adhering to the membranes and coating any implanted device in the middle ear, to normalize surface tension and passive closing pressure, facilitating mucociliary clearance through the restored Eustachian tube orifice into the nasopharynx. The products are then swallowed and arrive in the stomach, where the endogenous enzymes and HCL of the stomach inactivate and digest and any residual microorganisms or proteinaceous products.
If a tympanic membrane rupture has occurred, as a complication or from specific trauma, the method of the delivery of the exemplary embodiment is modified for the maximum therapeutic effect of supporting healing of the damaged tympanic membrane. This is accomplished by the application of solid, porous or absorbable implanted devices or sculptured to the anatomical defect of the tympanic membrane and implanted under direct visualization employing a surgical microscope. A non-porous device or tube may be implanted for the delivery of the novel embodiment. The implanted device serves as a conduit through which the embodiment is administered via the external ear canal on a scheduled program for continuous availability of the composition of the exemplary embodiment to support tissue healing by pre-collagen formation and re-epithelization cardinal to middle ear functions.

Data set [2] has as its system patulous Eustachian tube syndrome. Nature of the data set: Selected case studies: nose drops in patients with patulous / semi-patulous Eustachian tube syndrome. Type of data set: in vivo, human. As to the method: In an exemplary first administration protocol, the composition is administered in the form of nose drops, the patient sniffs them through the ipsilateral nostril on the side of the symptomatic ear affected with the disorder. The number of drops administered can be titrated to the needs of the individual patient. The patient can sniff from two to four drops of the solution, and the drops are sniffed back into the nostril so as to deliver the medication to the Eustachian tube opening in the back of the nose. Administration of the drops may be repeated again in four to six hours. As desired, the daily dose maybe increased to 4 drops per administration.
An exemplary nasal drop administration protocol has been developed for the first exemplary embodiment. To achieve normal closure of the lumen, 2-6 drops of the nasal supplement solution are applied to the stoma or opening of the Eustachian tube. It may take two weeks before changes in symptoms become apparent.
Referring to the illustrations in FIGS. 1 and 2 for reference, after the patient been up for a period of time, symptoms begin as the tubal tissues lose fluid and the lumen increases. When the patient feels the symptom of autophony is about to occur, gently blowing the nose to clear any mucous is accomplished.
With the patient 10 lying with head 12 between 45 to 60 degrees above horizontal. This places the Eustachian tube stoma (opening) lower than the nostril 16. Gravity will allow the drops to flow to the back of the nose. Sniffing will draw the drops further info the nasal passage to the Eustachian tube before the semi-permiable membrane lining of the nasal passage can absorb them. Alternatively while sitting in a chair, the head is tilted back at approximately 45 degrees and then tilted toward the affected ear to place it almost below the nose.
For nasal administration, to instill the drops, put the dropper tip one-quarter inch (¼″) into the lower nostril (affected side), closest to the symptomatic ear.
Instill 2-4 drops depending on individual anatomy. Sniffing briskly to draws the drops back approximately three inches (3″) to the location of the tube opening where they will be absorbed. The patient may feel a brief burning or stinging sensation when the drops are administered properly to stimulate the closure of the stoma of the tube. The patient then remains lying down in the administering position for ten (10) seconds.

[3] abbreviates: Example A: child, 5% in aqueous saline, topical to nasal mucosa, one month after recovery from upper respiratory infection.
[4] abbreviates: Example C: person, 5% wt/vol aqueous solution on porous implanted device, daily, after three months.

As for `O=C1O[C@H]([C@@H](O)CO)C(O)=C1O` [L-Ascorbic acid], in data set [1] (Example A: child, bilateral negative middle ear pressure, 5% in aqueous saline solution, nasal spray, over the next month), the middle ear pressure entry is “within normal limits”. Further, in data set [1] (setting [3]), the “Eustachian Tube function” value is recorded as “normal” and the “middle ear infection or fluid on examination” value is on record as “no evidence of any middle ear infection or fluid”. For the same molecule, the signs of infection result in data set [1] (Example B: person, Corynebacterium, 5% wt/vol in physiologic saline, two times a day) is on record as “no further signs of infection”. The middle ear drainage entry in data set [1] (Example B: person, right middle ear infection (Corynebacterium), 5% wt/vol in physiologic saline, trans canal through the perforation, two times a day, in five days) is “completely eliminated”. Moreover, the “mastoid / middle ear drainage” value in data set [1] (Example C: person, chronic right mastoiditis, total tympanic membrane perforation, 5% wt/vol aqueous solution on porous implanted device, daily, after three months) is “ceased”. In addition, in data set [1] (setting [4]), the infection entry is “free of infection” and the right eardrum perforation result is “healed closed”. Moreover, in data set [1] (Example III: child, chronic otitis media with effusion, 4% wt/vol in physiologic saline, metered nasal spray after politzerization, after two weeks), the hearing result is “hearing was restored”. In data set [1] (Example III: child, 4% wt/vol in physiologic saline, metered nasal spray), the adverse side effects entry was “no adverse side effects”. Also, the adverse side effects result in data set [2] (Example I: person, three drops, 15% wt/vol in distilled water, nose drops) is reported as “no adverse side effects were noted”. For the same molecule, the “patulous Eustachian tube syndrome (autophony)” value in data set [2] (Example I: person, three drops, 15% wt/vol in distilled water, sniffed into ipsilateral nostril, repeated six hours later) is recorded as “completely relieved”. In addition, the “autophony symptom of an Incompetent Eustachian Tube” value in data set [2] (Example II: person, unilateral semi-patulous Eustachian tube syndrome, 20% wt/vol aqueous solution, pH 2.0, 2-4 drops per treatment) is recorded as “receded completely”. For the same molecule, the adverse side effects result in data set [2] (Example II: person, 20% wt/vol aqueous solution, pH 2.0, 2-4 drops) was “no adverse side effects”. Moreover, in data set [2] (Example IV: person after nasopharyngeal carcinoma resection, 15% wt/vol aqueous solution, pH 2.1, daily over several years), the “carcinogenic effect from daily administration of nose drops” value is listed as “no carcinogenic effect”. Besides, the “cytology studies of the right Eustachian tube area” value in data set [2] (Example IV: person, 15% wt/vol aqueous solution, pH 2.1, daily for several years) was “free of cancer”. The “relief of PET symptoms” value in data set [2] (inventor (JD) as subject, two drops, 15% wt/vol. in distilled water, as needed, after one month) was “complete symptomatic relief”.
